One may read the AUC as concentration integrated over time. One may read the bioavailability as dose-corrected exposure relative to a reference, in per cent.

Drawing on patent US12226403B2 (SPERO THERAPEUTICS, INC., priority 2016, dated 2025), this text covers AUC and bioavailability for one compound.

Series [1] in a line: Previously generated IV data. As to conditions: in vivo, 10 mg/kg dose. The text has this:
Cmax was reduced with the modified release formulation compared to the immediate release (free base and HBr) formulation but AUCall was relatively constant between the formulations. AUCinf could not be calculated due to the variability in the terminal elimination profile. […] Mean residence time was increased in the extended release formulation.

Series [2] can be described thus: PK parameters for oral administration to monkeys. It counts as in vivo. As to conditions: cynomolgus monkey, plasma, 100 mg; oral tablets vs previously generated IV data, estimated; read-out: bioavailability of tebipenem. The protocol:
Each animal received a one week wash out prior to the next dose and each served as its own control. Blood samples were collected into K2EDTA tubes before processing to plasma. Samples were obtained at 15 minutes, 30 minutes, 1 hours, 2 hours, 4 hours, 6 hours, 8 hours, 10 hours, 12 hours, 16 hours, and 24 hours post administration. […] Non-compartmental analysis used to derive pharmacokinetic parameters of the composite time vs. concentration profiles were performed for each dose level using Phoenix Winnonlin v. 6.4. Plasma concentration of tebipenem for each time point was determined by HPLC.

On to `C[C@@H](O)[C@H]1C(=O)N2C(C(=O)O)=C(SC3CN(C4=NCCS4)C3)[C@H](C)[C@H]12` [tebipenem], for which, in series [1], the AUC was determined as 13100 ng·h/mL. Also, in series [2], the bioavailability is 39 to 50%.
